# According to US20100099793A1, “Gluing and Sealing Compounds Having Antimicrobial Properties” (Thor GmbH, priority 2006, published 2010):
# Columns and labels:
# [1] = system: mixture of fungal spores (Aspergillus niger, Alternaria alternata, Penicillium funiculosum, Paecilomyces variotii, Gliocladium virens, Chaetomium globosum); test: Microbiological test along the lines of EN ISO 846 part B: fungal growth on sealant test specimens on complete agar; assay type: cell-based; set-up: key to Fungal growth after 28 d Method B Complete agar a / Fungal growth after 28 d Method B Complete agar b: 0: No growth evident when viewed with a microscope.; 1: Slight growth, no growth evident to the naked eye, readily apparent microscopically.; Slight growth, readily apparent macroscopically, growth over not more than 25% of the sample surface.; 3: Moderate growth, growth over up to 50% of the sample surface.; 4: Severe growth, growth over more than 50% of the sample surface, but not over the entire area.; 5: Severe growth over the entire sample surface; conditions: silicone; for Fungal growth after 28 d Method B Complete agar a: duplicate a; for Fungal growth after 28 d Method B Complete agar b: duplicate b
# Experimental: The microbiological tests were carried out each in duplicate determinations along the lines of the standard EN ISO 846 B. For this purpose the sealants themselves were applied to inert support material (e.g., glass plates) approximately 2 mm thick, and, after curing, were cut into sections measuring 3×3 cm.
# […] In this test, the test specimens were placed on carbon-containing nutrient media (complete agar) for monitoring of the fungicidal action, and were then sprayed with a mixture of fungal spores; 0.1 ml of suspension per test specimen.
# The spore suspension contained 10^6 CFU/ml and comprised the following fungi:
# The samples thus inoculated were incubated at 25° C. for 28 days. This was followed by a visual evaluation of the sample surface. Where no growth was evident with the naked eye, the test took place with the assistance of a microscope. The ISO 846 tests were evaluated using the following scheme: • 0 No growth evident when viewed with a microscope. • 1 Slight growth, no growth evident to the naked eye, readily apparent microscopically. • 2 Slight growth, readily apparent macroscopically, growth over not more than 25% of the sample surface. • 3 Moderate growth, growth over up to 50% of the sample surface. • 4 Severe growth, growth over more than 50% of the sample surface, but not over the entire area. • 5 Severe growth over the entire sample surface.
# [2] = Analysis for active in the sealant without and after water storage (retention / leaching); assay type: physicochemical; conditions: silicone; for Active [ppm] Oit: oxime basis, 1000 ppm added
# Experimental: These sections, described below as test specimens, were subjected, both without water storage and after 2 days of water storage in fully demineralized water, with a change of water at 24 hours, to the ISO 846 test, part B. In this test, the test specimens were placed on carbon-containing nutrient media (complete agar) for monitoring of the fungicidal action, and were then sprayed with a mixture of fungal spores; 0.1 ml of suspension per test specimen.
# These sealants were analyzed for the amounts of OIT present, both without water storage and after 2 days of water storage, and the leaching (%) was calculated.
# [3] = acetoxy basis, 500 ppm, water storage 0 d
# [4] = acetoxy basis, 500 ppm, water storage 3 months (once a week 24 hour storage in fully demineralized water)
# [5] = acetoxy basis, 1000 ppm, water storage 0 d
# [6] = acetoxy basis, 1000 ppm, water storage 3 months (once a week 24 hour storage in fully demineralized water)
# [7] = oxime basis, 500 ppm, water storage 0 d
# [8] = oxime basis, 500 ppm, water storage 2 d
# [9] = oxime basis, 1000 ppm, water storage 0 d
# [10] = oxime basis, 1000 ppm, water storage 2 d
smiles,measurement,setting,value
COC(=O)Nc1nc2ccccc2[nH]1 [carbendazim],Fungal growth after 28 d Method B Complete agar a,[1]; [3],"3 (Moderate growth, growth over up to 50% of the sample surface.)"
same,Fungal growth after 28 d Method B Complete agar b,[1]; [3],"4 (Severe growth, growth over more than 50% of the sample surface, but not over the entire area.)"
same,Fungal growth after 28 d Method B Complete agar a,[1]; [4],5
same,Fungal growth after 28 d Method B Complete agar b,[1]; [4],5
same,fungal colonization (in words),"[1]; acetoxy basis, 1000 ppm of active, without water storage (0d)",slight colonization
same,Fungal growth after 28 d Method B Complete agar a,[1]; [5],"2 (Slight growth, readily apparent macroscopically, growth over not more than 25% of the sample surface.)"
same,Fungal growth after 28 d Method B Complete agar b,[1]; [5],"2 (Slight growth, readily apparent macroscopically, growth over not more than 25% of the sample surface.)"
same,Fungal growth after 28 d Method B Complete agar a,[1]; [6],"4 (Severe growth, growth over more than 50% of the sample surface, but not over the entire area.)"
same,Fungal growth after 28 d Method B Complete agar b,[1]; [6],5
same,fungal growth (in words),"[1]; acetoxy basis, both 500 and 1000 ppm, after the 3-month water storage cycle",severe fungal growth
"CCCCCCCCn1sccc1=O [OIT, 2-n-octyl-4-isothiazolin-3-one]",Fungal growth after 28 d Method B Complete agar a,[1]; [3],1
same,Fungal growth after 28 d Method B Complete agar b,[1]; [3],"2 (Slight growth, readily apparent macroscopically, growth over not more than 25% of the sample surface.)"
same,Fungal growth after 28 d Method B Complete agar a,[1]; [4],5
same,Fungal growth after 28 d Method B Complete agar b,[1]; [4],5
same,Fungal growth after 28 d Method B Complete agar a,[1]; [5],0
same,Fungal growth after 28 d Method B Complete agar b,[1]; [5],0
same,Fungal growth after 28 d Method B Complete agar a,[1]; [6],"4 (Severe growth, growth over more than 50% of the sample surface, but not over the entire area.)"
same,Fungal growth after 28 d Method B Complete agar b,[1]; [6],5
same,fungal growth (in words),"[1]; acetoxy basis, after the 3-month water storage cycles",heavily overgrown
same,fungal growth / action (in words),"[1]; acetoxy basis, without water storage (0d)",good action
same,Fungal growth after 28 d Method B Complete agar a,[1]; [7],0
same,Fungal growth after 28 d Method B Complete agar b,[1]; [7],1
same,Fungal growth after 28 d Method B Complete agar a,[1]; [8],"3 (Moderate growth, growth over up to 50% of the sample surface.)"
same,Fungal growth after 28 d Method B Complete agar b,[1]; [8],"3 (Moderate growth, growth over up to 50% of the sample surface.)"
same,Fungal growth after 28 d Method B Complete agar a,[1]; [9],0
same,Fungal growth after 28 d Method B Complete agar b,[1]; [9],0
same,Fungal growth after 28 d Method B Complete agar a,[1]; [10],"3 (Moderate growth, growth over up to 50% of the sample surface.)"
same,Fungal growth after 28 d Method B Complete agar b,[1]; [10],"2 (Slight growth, readily apparent macroscopically, growth over not more than 25% of the sample surface.)"
same,fungal growth (in words),"[1]; oxime basis, after water storage (2d)",moderately severe growth
same,Amount of active (ppm) With water storage,"[2]; acetoxy system, 400 ppm of OIT introduced, after 2 days of water storage",265 ppm
same,% leaching,"[2]; acetoxy system, 400 ppm of OIT introduced, calculated from amounts without and after 2 days of water storage",37%
same,Amount of active (ppm) Without water storage,"[2]; acetoxy system, 400 ppm of OIT introduced, without water storage",420 ppm
same,Active [ppm] Oit,[2]; 0 d (before water storage),740 ppm
same,Active [ppm] Oit,[2]; 2 d (after water storage),230 ppm
